Laboratory results published in patent US20070117743A1, “New antitumoral compounds” (priority 2003, published 2007).
Read-outs that look alike come from different tables or passages of the source. Where a SMILES comes first, the peptide text is derived from it. Bridges are numbered along the chain shown (N, C = ends). [ ]: non-standard residue; d: D form. The star is where a group is joined. Hexanoyl(4S-Me) = CC[C@H](C)CCC(=O)*; d(aIle) = CC[C@H](C)[C@@H](N)C(=O)O; d(aThr) = C[C@@H](O)[C@@H](N)C(=O)O; Hexanoyl(5-Me) = CC(C)CCCC(=O)*; Phg = N[C@H](C(=O)O)c1ccccc1; Orn = NCCC[C@H](N)C(=O)O; Dhb = C/C=C(\N)C(=O)O

What was measured:
Format in all cases: cell-based, human
[1] = tested on: SK-MEL-28; test: SRB colorimetric assay of cell growth and viability, SK-MEL-28; details: 48 hours exposure; for CC50: read-out: LC50 MEL-28
[2] = tested on: DU-145; test: SRB colorimetric assay of cell growth and viability, DU-145; details: 48 hours exposure
[3] = tested on: A-549; test: SRB colorimetric assay of cell growth and viability, A-549; details: 48 hours exposure; for GI50: read-out: GI50 A-549; for CC50: read-out: LC50 A-549
[4] = tested on: LoVo; test: SRB colorimetric assay of cell growth and viability, LoVo; details: 48 hours exposure; for CC50: read-out: LC50 LOVO
[5] = tested on: HeLa-APL; test: SRB colorimetric assay of cell growth and viability, HeLa-APL; details: 48 hours exposure; for CC50: read-out: LC50 HELA-APL
[6] = tested on: IGROV-ET; test: SRB colorimetric assay of cell growth and viability, IGROV-ET; details: 48 hours exposure; for CC50: read-out: LC50 IGROV-ET
[7] = tested on: SK-BR-3; test: SRB colorimetric assay of cell growth and viability, SK-BR-3; details: 48 hours exposure
Excerpt: The finality of this assay is to interrupt the growth of a “in vitro” tumor cell culture by means a continued exhibition of the cells to the sample to be testing.
This form of the assay employs 96 well cell culture microplates of 9 mm diameter (Faircloth, 1988; Mosmann, 1983). Most of the cell lines are obtained from American Type Culture Collection (ATCC) derived from different human cancer types.
Cells are maintained in RPMI 1640 10% FBS, supplemented with 0.1 g/l penicillin and 0.1 g/l streptomycin sulfate and then incubated at 37° C., 5% CO2 and 98% humidity. For the experiments, cells were harvested from subconfluent cultures using trypsin and resuspended in fresh medium before plating.
Cells are seeded in 96 well microtiter plates, at 5×10^3 cells per well in aliquots of 195 μL medium, and they are allowed to attach to the plate surface by growing in drug free medium for 18 hours. Afterward, samples are added in aliquots of 5 μL in a ranging from 10 to 10^−8 μg/mL, dissolved in DMSO:EtOH:PBS (0.5:0.5:99). After 48 hours exposure, the antitumor effect are measured by the SRB methodology: cells are fixed by adding 50 μL of cold 50% (wt/vol) trichloroacetic acid (TCA) and incubating for 60 minutes at 4° C. Plates are washed with deionized water and dried. One hundred μL of SRB solution (0.4% wt/vol in 1% acetic acid) is added to each microtiter well and incubated for 10 minutes at room temperature. Unbound SRB is removed by washing with 1% acetic acid. Plates are air dried and bound stain is solubilized with Tris buffer. Optical densities are read on a automated spectrophotometric plate reader at a single wavelength of 490 nm.
The values for mean+/− SD of data from triplicate wells are calculated. Some parameters for cellular responses can be calculated: GI=growth inhibition, TGI=total growth inhibition (cytostatic effect) and LC=cell killing (cytotoxic effect).

[8] = tested on: LoVo-Dox; test: SRB colorimetric assay of cell growth and viability, LoVo-Dox; details: 48 hours exposure; for CC50: read-out: LC50 LOVO-DOX
How it was run: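 Here, cells grow drug-free for 18 h, then receive sample dilutions from 10 down to 10^−8 μg/mL for 48 h at 37° C. Protein-bound SRB is solubilized in Tris and quantified at 490 nm.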

[9] = tested on: HeLa; test: SRB colorimetric assay of cell growth and viability, HeLa; details: 48 hours exposure; for CC50: read-out: LC50 HELA
[10] = tested on: K-562; test: SRB colorimetric assay of cell growth and viability, K-562; details: 48 hours exposure; for CC50: read-out: LC50 K-562
[11] = tested on: HT-29; test: SRB colorimetric assay of cell growth and viability, HT-29; details: 48 hours exposure; for GI50: read-out: GI50 HT-29; for CC50: read-out: LC50 HT-29
[12] = tested on: PANC-1; test: SRB colorimetric assay of cell growth and viability, PANC-1; details: 48 hours exposure; for CC50: read-out: LC50 PANC-1
[13] = tested on: IGROV-1; test: SRB colorimetric assay of cell growth and viability, IGROV-1; details: 48 hours exposure

For `C/C=C1\NC(=O)[C@H](Cc2ccc(O)cc2)NC(=O)[C@@H](C(C)C)NC(=O)[C@@H]([C@@H](C)CC)NC(=O)[C@H](NC(=O)[C@H](NC(=O)[C@H](CCCN)NC(=O)[C@H]2CCCN2C(=O)[C@H](NC(=O)[C@@H](NC(=O)[C@@H](NC(=O)[C@H](NC(=O)CC[C@@H](C)CC)C(C)C)[C@@H](C)O)C(C)C)C(C)C)[C@@H](C)CC)[C@@H](C)OC(=O)[C@H](C(C)C)NC1=O` [Compound 78, [Tyr^3, (4S)-MeHex^14]-KF] ({Hexanoyl(4S-Me)}-[dV]TV[dV][dP][Orn][d(aIle)][d(aThr)][d(aIle)][dV]Y[Dhb]V; ester 8-C), the GI50 ([1]; SRB) was 1120 nM, the “TGI MEL-28” value ([1]; SRB) was 2.01E−06 Molar and the CC50 ([1]; SRB) was 3590 nM. The GI50 ([2]; SRB) was 1270 nM, the LC50 (concentration causing 50% net cell kill) ([2]; SRB) was 3760 nM and the “TGI DU-145” value ([2]; SRB) was 2.18E−06 Molar. The “TGI A-549” value ([3]; SRB) was 2.23E−06 Molar, the GI50 ([3]; SRB) was 1270 nM and the CC50 ([3]; SRB) was 3920 nM. For the same molecule, the GI50 ([4]; SRB) was 390 nM, the “TGI LOVO” value ([4]; SRB) was 1.16E−06 Molar and the CC50 ([4]; SRB) was 2710 nM. The GI50 ([5]; SRB) was 964 nM, the “TGI HELA-APL” value ([5]; SRB) was 1.81E−06 Molar and the CC50 ([5]; SRB) was 3420 nM. The GI50 ([6]; SRB) was 930 nM, the “TGI IGROV-ET” value ([6]; SRB) was 1.79E−06 Molar and the CC50 ([6]; SRB) was 3420 nM. For the same molecule, the GI50 ([7]; SRB) was 266 nM, the LC50 ([7]; SRB) was 2580 nM and the “TGI SK-BR-3” value ([7]; SRB) was 1.02E−06 Molar. The GI50 ([8]; SRB) was 135 nM, the “TGI LOVO-DOX” value ([8]; SRB) was 2.89E−07 Molar and the CC50 ([8]; SRB) was 621 nM. The GI50 ([9]; SRB) was 1160 nM, the “TGI HELA” value ([9]; SRB) was 1.97E−06 Molar and the CC50 ([9]; SRB) was 3360 nM. For the same molecule, the GI50 ([10]; SRB) was 1650 nM, the “TGI K-562” value ([10]; SRB) was 3.78E−06 Molar and the CC50 ([10]; SRB) was 6690 nM. For the same molecule, the “TGI HT-29” value ([11]; SRB) was 1.99E−06 Molar, the GI50 ([11]; SRB) was 1080 nM and the CC50 ([11]; SRB) was 3700 nM. For the same molecule, the GI50 ([12]; SRB) was 2560 nM, the “TGI PANC-1” value ([12]; SRB) was 6.69E−06 Molar and the CC50 ([12]; SRB) was 6690 nM. For the same molecule, the GI50 ([13]; SRB) was 877 nM, the LC50 (concentration causing 50% net cell killing) ([13]; SRB) was 3330 nM and the “TGI IGROV” value ([13]; SRB) was 1.71E−06 Molar.

For `C/C=C1\NC(=O)[C@H](c2ccccc2)NC(=O)[C@@H](C(C)C)NC(=O)[C@@H]([C@@H](C)CC)NC(=O)[C@H](NC(=O)[C@H](NC(=O)[C@H](CCCN)NC(=O)[C@H]2CCCN2C(=O)[C@H](NC(=O)[C@@H](NC(=O)[C@@H](NC(=O)[C@H](NC(=O)CCCC(C)C)C(C)C)[C@@H](C)O)C(C)C)C(C)C)[C@@H](C)CC)[C@@H](C)OC(=O)[C@H](C(C)C)NC1=O` [Compound 87, [Phg^3]-KF] ({Hexanoyl(5-Me)}-[dV]TV[dV][dP][Orn][d(aIle)][d(aThr)][d(aIle)][dV][Phg][Dhb]V; ester 8-C), the GI50 ([1]; MEL-28) was 1900 nM, the “TGI MEL-28” value ([1]; MEL-28) was 1.90E−06 Molar and the CC50 ([1]; MEL-28) was 1900 nM. For the same molecule, the GI50 ([2]; DU-145) was 1900 nM, the LC50 (concentration causing 50% net cell kill) ([2]; DU-145) was 1900 nM and the “TGI DU-145” value ([2]; DU-145) was 1.90E−06 Molar. The “TGI A-549” value ([3]; A-549) was 1.90E−06 Molar, the GI50 ([3]; A-549) was 1900 nM and the CC50 ([3]; A-549) was 1900 nM. For the same molecule, the GI50 ([4]; LOVO) was 957 nM, the “TGI LOVO” value ([4]; LOVO) was 1.90E−06 Molar and the CC50 ([4]; LOVO) was 1900 nM. For the same molecule, the GI50 ([5]; HELA-APL) was 1900 nM, the “TGI HELA-APL” value ([5]; HELA-APL) was 1.90E−06 Molar and the CC50 ([5]; HELA-APL) was 1900 nM. The GI50 ([6]; IGROV-ET) was 1290 nM, the “TGI IGROV-ET” value ([6]; IGROV-ET) was 1.90E−06 Molar and the CC50 ([6]; IGROV-ET) was 1900 nM. The GI50 ([7]; SK-BR-3) was 748 nM, the LC50 ([7]; SK-BR-3) was 1870 nM and the “TGI SK-BR-3” value ([7]; SK-BR-3) was 1.19E−06 Molar. The GI50 ([8]; LOVO-DOX) was 513 nM, the “TGI LOVO-DOX” value ([8]; LOVO-DOX) was 1.32E−06 Molar and the CC50 ([8]; LOVO-DOX) was 1900 nM. For the same molecule, the GI50 ([9]; HELA) was 1900 nM, the “TGI HELA” value ([9]; HELA) was 1.90E−06 Molar and the CC50 ([9]; HELA) was 1900 nM. For the same molecule, the GI50 ([10]; K-562) was 1900 nM, the “TGI K-562” value ([10]; K-562) was 1.90E−06 Molar and the CC50 ([10]; K-562) was 1900 nM. For the same molecule, the “TGI HT-29” value ([11]; HT-29) was 1.90E−06 Molar, the GI50 ([11]; HT-29) was 1580 nM and the CC50 ([11]; HT-29) was 1900 nM. The GI50 ([12]; PANC-1) was 1900 nM, the “TGI PANC-1” value ([12]; PANC-1) was 1.90E−06 Molar and the CC50 ([12]; PANC-1) was 1900 nM. For the same molecule, the GI50 ([13]; IGROV) was 919 nM, the LC50 (concentration causing 50% net cell killing) ([13]; IGROV) was 1900 nM and the “TGI IGROV” value ([13]; IGROV) was 1.90E−06 Molar.
